SMILES strings stand for the structures.

The text below walks through data of US9645154B2, “Method for detecting cancer cell” (ARKRAY, Inc., priority 2010, dated 2017).

What all share (assay type): cell-based
The test system of test [1] is human prostate cancer cells (PC3). The test can be described thus: Labeled sugar incorporation, fluorescence microscopy image analysis (positive rate). The conditions noted are these: hemolyzed, 10 mM, 5 min, 23° C., threshold value 880. The procedure:
(§1) The number of the cells was counted for each cell line using a hemacytometer in accordance with the conventional method, and then 10^5 to 10^6 cells per sample (cell suspension) was aliquoted. Each of the sample was centrifuged to remove the supernatant. Subsequently, 2-NBDG (Wako Pure Chemical Industries, Ltd.; at the final concentration given in Table 3 or 4) dissolved in Dulbecco's PBS (−) was added thereto, and the cells were suspended well. After the reaction, Dulbecco's PBS (−) was added to the mixture, and the resultant was centrifuged to remove the supernatant. The cells were resuspended with Dulbecco's PBS (−) and centrifuged, and the supernatant was removed again. The steps of resuspending cells with Dulbecco's PBS (−), centrifuging and removing the supernatant were then repeated 2 to 3 times, thereby washing the cells thoroughly. The cells were resuspended with Dulbecco's PBS (−), the concentration thereof was adjusted, and then added dropwise to a 384-well plate. The plate was centrifuged to spin down the cells. The image was captured with a fluorescence microscope (Nikon Corp.) using B-2A filter combination (Nikon Corp.). The B-2A set covers the following wavelengths. EX (excitation wavelength): 475±15 nm, DM: 505 nm or longer, BA (fluorescence wavelength) 520 nm or longer.
(§2) The acquired images were analyzed using an image analysis software NIS-ELEMENTS (trade name, Nikon Corp.) to evaluate the fluorescence intensity of the cell.
(§3) In a manner similar to Example 2, each of human breast adenocarcinoma cells (cell line name: MCF-7; DS Pharma Biomedical Co., Ltd.), human colon adenocarcinoma cells (cell line name: SW620; DS Pharma Biomedical Co., Ltd.), human prostate cancer cells (cell line name: PC3; DS Pharma Biomedical Co., Ltd.), human alveolar epithelial cancer cells (cell line name: NCI-H358; DS Pharma Biomedical Co., Ltd.), human gastric cancer cells (cell line name: SNU-1; ATCC) and human fibrosarcoma cells (cell line name: HT1080; DS Pharma Biomedical Co., Ltd.) was detected with the labeled sugar (2-NBDG).

The test system of test [2] is human breast adenocarcinoma cells (MCF-7). Described as above. The conditions noted are these: hemolyzed, 10 mM, 5 min, 23° C., threshold value 330. How it is done:
as §1, §2, §3

The subject of test [3] is human alveolar epithelial cancer cells (NCI-H358). The test is described as above. The conditions noted are these: hemolyzed, 10 mM, 5 min, 23° C., threshold value 370. The procedure:
as §1, §2, §3

For test [4], the system named is human colon adenocarcinoma cells (SW620). Described as above. The note with it: threshold value 280. How it is done:
as §1, §2, §3

Test [5] has as its system normal human dermal fibroblast cell NHDF. Nature of the test: Aminolevulinic acid labeling with or without iron ion and reducing agent (degree of false-positive results). The conditions noted are these: 0.3 mM, 37° C., 60 min. The source says: In accordance with the conventional method, human fibrosarcoma cell HT-1080 (DS Pharma Biomedical Co., Ltd.) and normal human dermal fibroblast cell NHDF (Lonza) in culture were harvested with trypsin (Invitrogen). The cell suspension of the harvested cancer cells was centrifuged, and the supernatant was removed. The cells were then resuspended with Dulbecco's PBS (+) (Nissui Pharmaceutical Co., Ltd.) and centrifuged, and the supernatant was removed again.
The number of the cells was counted using a hemacytometer in accordance with the conventional method, and then 10^5 to 10^6 cells per sample (cell suspension) was aliquoted. The sample was centrifuged to remove the supernatant. In the case an iron ion and a reducing agent were added, 0.3 mM of aminolevulinic acid (trade name: 5-AMINOLEVULINATE HYDROCHLORIDE, Cosmo Bio Co., Ltd.), 0.3 mM of FeCl2 and 0.3 mM of ascorbic acid dissolved in Dulbecco's PBS (+) were added thereto, and the cells were suspended well. In the case an iron ion and a reducing agent were not added, 0.3 mM of aminolevulinic acid dissolved in Dulbecco's PBS (+) was added singly, and the cells were suspended well. Each of the mixture was then allowed to react at 37° C. for 60 minutes. The number of cells was adjusted, and then the cells were added dropwise to a 384-well plate. The plate was centrifuged to spin down the cells.
The fluorescence filter set: EX (excitation wavelength) 402±7.5, DM 430 or longer, BA (fluorescence wavelength) 625±15.

[6] abbreviates: Ascorbic acid 0.3 mM, FeC12 0.3 mM.

Consider `O=[N+]([O-])c1ccc(N[C@H]2C(O)O[C@H](CO)[C@@H](O)[C@@H]2O)c2nonc12` (stereo partly drawn) [2-NBDG, 2-[N-(7-nitrobenz-2-oxa-1,3-diazol-4-yl)amino]-2-deoxy-D-glucose], for which the “Positive rate (Cancer cells)” value was 69.8% in test [1]; 100.0% in test [2]; 83.0% in test [3]; 100.0% in test [4] (hemolyzed, 10 mM, 5 min, 23° C.); 100.0% in test [4] (single, Glucose conc.: 1 mM, Temp.: 37° C., Time: 30 min).
Regarding `NCC(=O)CCC(=O)O` [aminolevulinic acid, 5-amino-4-oxopentanoic acid], the “Negative rate (Normal epithelial cells (NHDF))” value in test [5] (Ascorbic acid 0, FeC12 0) stood at 37.7%; in test [5] (setting [6]), 85.7%. In addition, the “Positive rate (Normal epithelial cells (NHDF))” value in test [5] (Ascorbic acid 0, FeC12 0) was determined as 62.3%; in test [5] (setting [6]), 14.3%.
